Like-named read-outs stand apart in the source and are kept apart here.
Tested on: PAE 27853
Type: cell-based, P. aeruginosa
Conditions: tntbc: Too numerous to be counted
Procedure: Method 4: Determination of the Spontaneous Mutation Frequency of the Compounds Alone and Combined with Antibiotics.
Bacterial isolates (Table 3) were grown overnight at 35° C. on TSA plates (Becton-Dickinson and Company) in ambient air. After 24 h of incubation, isolated bacterial colonies were added to cation-adjusted Mueller-Hinton broth (ca-MHB; Becton-Dickinson and Company) and cultured for approximately 6 h at 35° C. The pre-culture was stopped once bacteria have reached an OD600 nm of 0.5 for 200 μL. The bacterial suspension was centrifuged at 4000 rpm for 20 min. The supernatant was then discarded and the bacterial pellet was dissolved in ca-MHB to obtain 10^9 to 10^10 CFU/mL. Assays including Fosfomycin were supplemented with 25 μg/ml of Glucose-6-phosphate. 100 μL of the adjusted bacterial suspension were spread on agar plates containing different concentrations of the compounds of the present invention alone or combined with an antibacterial (Table 1). The plates were incubated for 24-48 h at 35° C. in ambient air. CFU were numerated on each agar plate containing compound. The number of resistant colonies obtained was divided by the starting inoculum to give the frequency of spontaneous resistance for a given incubation time (24 and 48 h).

SMILES: O=C(O)c1cn(C2CC2)c2cc(N3CCNCC3)c(F)cc2c1=O [CIP, Ciprofloxacin]
- Frequency of spontaneous resistance (single agent at 4.MIC): 5.1E−08
- Frequency of spontaneous resistance (single agent at 8.MIC): 4.0E−09
